# Reference: article PMC1968196, “Effect of anthracycline analogs on photolabelling of p-glycoprotein by [125I]iodomycin and [3H]azidopine: relation to lipophilicity and inhibition of daunorubicin transport in multidrug resistant cells” (British Journal of Cancer, 1993)
# Like-named read-outs stand apart in the source and are kept apart here.
# Experiments:
# P-glycoprotein [1] = test: [3H]azidopine photolabelling of Pgp in EHR2/DNR+ cells; format: binding, mice; settings: [3H]AZP 0.4 µM
# Text: (§1) Br. J. Cancer (1993), 67, 226 231 ? Macmillan Press Ltd., 1993 Effect of anthracycline analogs on photolabelling of p-glycoprotein by I'25 liodomycin and [3Hlazidopine: Relation to lipophilicity and inhibition of daunorubicin transport in multidrug resistant cells E. Frichel*, E.J.F. Demant2, M. Sehested3 & N.I. Nissen' 'Department of Medicine and Hematology, L 4042, Rigshospitalet-University Hospital, 9, Blegdamsvej, DK-2100 Copenhagen; 2Department of Biochemistry C, The Panum Institute, University of Copenhagen, DK-2200 Copenhagen; 3Department of Pathology, Sundby Hospital, DK-2300 Copenhagen, Denmark. […] We photoaffinity labelled P-glycoprotein in daunorubicin (DNR) resistant Ehrlich ascites tumour cells (EHR2/DNR + ) with a ['25I]iodinated Bolton-Hunter derivative of daunorubicin ([1251]iodomycin) and with [3H]azidopine. […] Anthracyclines are among the most valuable cytostatic agents in clinical use. Their usefulness is, however, limited by the occurrence of tumour cells with the multidrug resistance (MDR) phenotype (Beck, 1987; Bliek & Borst, 1989; Endicott & Ling, 1989; Kaye & Merry, 1985; Moscow & Cowan, 1988). MDR cells have an enhanced amount of a 150- 170 kDa plasma membrane glycoprotein, P-glycoprotein (Pgp) (Kartner et al., 1983 and 1985; Cornwell et al., 1986; Bradley et al., 1988; Beck, 1991a; Roninson, 1991), that may function as a low-specificity transport protein to facilitate the outward transport of cytotoxic agents including the anthracyclines. Thus, increased drug efflux and therefore decreased accumulation is seen in MDR cells not only to the drug for which resistance is developed but also to a wide spectrum of chemically unrelated cytostatics (Bradley et al., 1988; Fojo et al., 1985). […] The aim of this study was to examine these analogs for their ability to com- pete for ligand binding to Pgp and thus service as inhibitors for the outward drug transport system in MDR cells. Anthracycline inter-actions with Pgp were assessed using the specific photolabelling of the protein with [251I]iodomycin, a ['251]iodinated Bolton-Hunter derivative of DNR (Busche et al., 1989a) and with [3H]azidopine ([3H]AZP) which photolabels Pgp in plasma membrane vesicles from EHR2/ DNR + cells (Sehested et al., 1990) as well as in whole cells (Safa et al., 1987; Friche et al., 1990c). […] Material and methods Chemicals Duanorubicin (DNR); AdriamycinR (Doxorubicin/HCl, DOX); 4'-deoxy-4'-iododoxorubicin (DIDOX); and 4- demethoxy-DNR were kindly supplied from Farmitalia, Carlo Erba (Milan, Italy). N,N-dibenzyl-DNR was a gift from Dr Nicholas Bachur, (Baltimore, MD) and N- benzyladriamycin-14-valerate (AD 198) a gift from Professor M. Israel (Memphis, TN). Mitoxantrone was purchased from Lederle (New Jersey, USA), Aclacinomycin A from Lund- beck & Co A/S (Copenhagen, Denmark), OncovinR (Vincristine/HCl, VCR) from Eli Lilly Deutschland GMBH (Giessen, Germany), Cremophor EL from BASF Aktiengesellschaft (Ludwigshafen, Germany), and Tween 80 from the Sigma Chemical Co. (St. Louis, MO). ['251]-Bolton- Hunter reagent (2000 Ci mmol 1), [3H]AZP (42 Ci mmol- ') and non-radioactive AZP were purchased from Amersham International (Amersham, UK). All other chemicals were of analytical grade. Organic solvents were distilled prior to use. Triethylamine was distilled over ninhydrin and anhydrous methanol was stored over molecular sieve (3 A). Tumour cells Cells were either the wild-type Ehrlich ascites tumor line (EHR2) or the corresponding DNR-resistant line (EHR2/ DNR + ) (Dan0, 1971) displaying both the MDR phenotype (Sehested et al., 1990) and as recently shown, decreased Correspondence: E. Friche. Received 22 April 1992; and in revised form 21 September 1992.
# [2] = pH 7.45
# Text: as §1
# EHR2/DNR+ [3] = settings: in vivo; ref Friche et al., 1987; cited from earlier work
# EHR2/DNR+ [4] = settings: in vitro clonogenic assay; ref Friche et al., 1990b; cited from earlier work
# P-glycoprotein [5] = test: [125I]iodomycin photolabelling of Pgp in EHR2/DNR+ cells; format: binding, mice; settings: iodomycin 10 nM
# Text: as §1
compound,measurement,setting,value
COc1cccc2c1C(=O)c1c(O)c3c(c(O)c1C2=O)C[C@@](O)(C(C)=O)C[C@@H]3O[C@H]1C[C@H](N)[C@H](O)[C@H](C)O1 [Daunorubicin],Per cent inhibition of [3H]AZP photolabelling of Pgp,P-glycoprotein [1]; 10 µM drug,8.0%
same,Per cent inhibition of [3H]AZP photolabelling of Pgp,P-glycoprotein [1]; 20 µM drug,33.2%
same,Per cent inhibition of [3H]AZP photolabelling of Pgp,P-glycoprotein [1]; 40 µM drug (100-fold molar excess),50.0%
same,"Lipid solubility (O/W), octanol/water partition coefficient",[2],7.85
same,Resistance of EHR2/DNR+ subline,EHR2/DNR+ [3],at least 16 fold
same,Resistance of EHR2/DNR+ subline,EHR2/DNR+ [4],about 80 fold
same,Per cent inhibition of [125I]iodomycin photolabelling of Pgp,"P-glycoprotein [5]; 10 µM drug (1000-fold molar excess), 30 min 37°C",52.5%
same,Per cent inhibition of [125I]iodomycin photolabelling of Pgp,P-glycoprotein [5]; 20 µM drug,82.7%
same,Per cent inhibition of [125I]iodomycin photolabelling of Pgp,"P-glycoprotein [5]; 20 µM drug, listed as DNR",83%
same,Per cent inhibition of [125I]iodomycin photolabelling of Pgp,P-glycoprotein [5]; 40 µM drug,90.6%
same,Per cent inhibition of [125I]iodomycin photolabelling of Pgp,"P-glycoprotein [5]; 40 µM drug, listed as DNR",90%
